Consider nine molecules from publication PMC3420360 (Bioorganic & medicinal chemistry letters, 2010).

The target of assay [1] is T1, rat TRPV1 (Rattus norvegicus, UniProt O35433). In words: functional 45Ca2+ uptake assay, agonism. The class given is cell-based. Particulars: for functional pattern of agonism/antagonism: 45Ca2+ uptake, rat TRPV1 in CHO cells, result in words; for fold less potent than RTX for functional activity: agonism EC50 versus RTX.
Assay [2] concerns the target T1, rat TRPV1. The class given is cell-based. The settings on record: Ki(ant) versus 5'-iodo RTX under the same assay conditions.

T1 sequence (O35433 whole entry): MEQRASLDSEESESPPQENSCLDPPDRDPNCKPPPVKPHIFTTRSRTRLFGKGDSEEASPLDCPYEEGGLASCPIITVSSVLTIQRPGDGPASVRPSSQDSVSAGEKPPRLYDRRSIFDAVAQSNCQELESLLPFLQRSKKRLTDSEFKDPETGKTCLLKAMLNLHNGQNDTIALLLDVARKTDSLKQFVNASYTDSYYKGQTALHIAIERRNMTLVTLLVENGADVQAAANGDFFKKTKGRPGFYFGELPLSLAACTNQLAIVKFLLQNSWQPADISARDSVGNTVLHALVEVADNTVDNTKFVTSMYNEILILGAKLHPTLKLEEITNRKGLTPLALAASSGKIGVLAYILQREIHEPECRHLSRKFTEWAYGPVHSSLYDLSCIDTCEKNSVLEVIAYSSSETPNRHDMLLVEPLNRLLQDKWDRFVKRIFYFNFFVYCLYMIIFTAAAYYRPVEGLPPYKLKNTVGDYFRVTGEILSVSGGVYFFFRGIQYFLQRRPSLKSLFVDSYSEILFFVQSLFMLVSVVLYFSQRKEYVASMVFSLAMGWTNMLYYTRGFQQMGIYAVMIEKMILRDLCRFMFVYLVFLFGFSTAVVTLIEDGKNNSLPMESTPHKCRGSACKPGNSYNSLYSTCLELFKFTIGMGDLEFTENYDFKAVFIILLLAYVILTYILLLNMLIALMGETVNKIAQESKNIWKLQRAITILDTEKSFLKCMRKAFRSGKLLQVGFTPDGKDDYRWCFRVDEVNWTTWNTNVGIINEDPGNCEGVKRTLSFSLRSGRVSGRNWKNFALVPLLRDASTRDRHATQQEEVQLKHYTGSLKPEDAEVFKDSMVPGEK

Consider `C=C(C)[C@@]12C[C@@H](C)C34OC(Cc5ccccc5)(OC1[C@@H]3C=C(COC(=O)Cc1cc(Br)cc(Br)c1)C[C@]1(O)C(=O)C(C)=C[C@@H]41)O2` (some centres unmarked) [compound 35], for which, on rat TRPV1 [1], the “functional pattern of agonism/antagonism” value is on record as “full agonist”.

For the molecule `C=C(C)[C@@]12C[C@@H](C)C34OC(Cc5ccccc5)(OC1[C@@H]3C=C(COC(=O)Cc1ccc(N)c(OC)c1)C[C@]1(O)C(=O)C(C)=C[C@@H]41)O2` (some centres unmarked) [compound 36, 4-amino RTX], the “functional pattern of agonism/antagonism” value at rat TRPV1 [1] is recorded as “potent full agonism”. The “fold less potent than RTX (Ki and EC50)” value at rat TRPV1 [1] (both binding Ki and agonism EC50 compared with RTX) is reported as 2–3 fold.

Consider `C=C(C)[C@@]12C[C@@H](C)C34OC(Cc5ccccc5)(OC1[C@@H]3C=C(COC(=O)Cc1cc(I)c(O)c(OC)c1)C[C@]1(O)C(=O)C(C)=C[C@@H]41)O2` (some centres unmarked) [compound 2, 5-iodo RTX, reference compound], for which the “functional pattern of agonism/antagonism” value at rat TRPV1 [1] is “full antagonist”.

Regarding `C=C(C)[C@@]12C[C@@H](C)C34OC(Cc5ccccc5)(OC1[C@@H]3C=C(COC(=O)Cc1cc(Cl)c(N)c(OC)c1)C[C@]1(O)C(=O)C(C)=C[C@@H]41)O2` (some centres unmarked) [compound 38], the “functional pattern of agonism/antagonism” value on rat TRPV1 [1] was “partial antagonist”.

Take `C=C(C)[C@@]12C[C@@H](C)C34OC(Cc5ccccc5)(OC1[C@@H]3C=C(COC(=O)Cc1cc(F)c(O)c(OC)c1)C[C@]1(O)C(=O)C(C)=C[C@@H]41)O2` (some centres unmarked) [compound 31]: at rat TRPV1 [1], the “functional pattern of agonism/antagonism” value is recorded as “full agonists” and the “fold less potent than RTX for functional activity” value is 9 fold.

Take `C=C(C)[C@@]12C[C@@H](C)C34OC(Cc5ccccc5)(OC1[C@@H]3C=C(COC(=O)Cc1cc(Br)c(O)c(OC)c1)C[C@]1(O)C(=O)C(C)=C[C@@H]41)O2` (some centres unmarked) [compound 33]: on rat TRPV1 [1], the “functional pattern of agonism/antagonism” value is on record as “partial antagonist”.

With `C=C(C)[C@@]12C[C@@H](C)C34OC(Cc5ccccc5)(OC1[C@@H]3C=C(COC(=O)Cc1cc(F)c(N)c(OC)c1)C[C@]1(O)C(=O)C(C)=C[C@@H]41)O2` (some centres unmarked) [compound 37], the “functional pattern of agonism/antagonism” value at rat TRPV1 [1] is given as “full agonist”. For the same molecule, the “fold less potent than the parent 36 (agonism)” value at rat TRPV1 [1] (agonism EC50 versus 4-amino RTX (36)) was found to be 2.5 fold.

Consider `C=C(C)[C@@]12C[C@@H](C)C34OC(Cc5ccccc5)(OC1[C@@H]3C=C(COC(=O)Cc1cc(Cl)c(O)c(OC)c1)C[C@]1(O)C(=O)C(C)=C[C@@H]41)O2` (some centres unmarked) [compound 32], for which, at rat TRPV1 [1], the “functional pattern of agonism/antagonism” value is “full agonists” and the “fold less potent than RTX for functional activity” value is given as 21 fold.

As for `C=C(C)[C@@]12C[C@@H](C)C34OC(Cc5ccccc5)(OC1[C@@H]3C=C(COC(=O)Cc1cc(Br)c(N)c(OC)c1)C[C@]1(O)C(=O)C(C)=C[C@@H]41)O2` (some centres unmarked) [compound 39, 5-bromo-4-amino RTX], the “functional pattern of agonism/antagonism” value on rat TRPV1 [1] was “full antagonist”. In addition, at rat TRPV1 [2], the “fold more potent than I-RTX as antagonist” value was 4 fold.
